What was measured:
[1] = Stability tests of modified 2′-deoxyguanosines in NDS buffer vs. 2′-deoxyguanosine (nitrite-mediated deamination); format: physicochemical; settings: for stability in NDS compared with 2′-deoxyguanosine: nitrite deprotection solution (sodium nitrite in 1M sodium acetate, pH 5.5), room temperature, over 4 days, HPLC or LC/MS
Protocol: Stability Tests of Modified 2′-Deoxyguanosines in NDS Buffer vs. 2′-Deoxyguanosine
Nitrite deprotection solution (NDS) was prepared from sodium nitrite (380 mg, 5.5 mmol) and 1M pH 5.5 sodium acetate (7.868 mL) and adjusted to pH 5.5 with 10M sodium hydroxide. Samples of nucleoside (˜0.5 mg) were dissolved in 1 mL aliquots of this buffer. The samples were analysed by HPLC or LC/MS using Method 1 or Method 2 immediately after making up the samples and at intervals over 4 days while stored at room temperature alongside reference samples of 2′-deoxyguanosine. 2′-Deoxyguanosine gave an approximately 8:1 mixture of 2′-deoxyxanthosine and Peak (3) with the same mass as 2′-deoxyxanthosine. 7-Deaza-2′-deoxyguanosine gave 7-deaza-2′-deoxyxanthosine as one component of a complex mixture of products. Other nucleosides gave products with masses corresponding to the products of substitution of NH2 with OH (increase of 1 Da) assigned to the 2′-deoxyxanthosine analogues. Data for 7-deaza-2′-deoxyguanosine (X=CH, Y=CH), 7-deaza-7-trifluoromethyl-2′-deoxyguanosine (X=CCF3, Y=CH), 7-deaza-7-cyano-2′-deoxyguanosine, 7-deaza-7-methanesulfonyl-2′-deoxyguanosine (X=CSO2Me, Y=CH) and 8-aza-2′-deoxyguanosine (X=N, Y=N) for experiments run in parallel with 2′-deoxyguanosine (X=CH, Y=N) are shown in the plots below.

TdT = assay: Enzymatic DNA synthesis reactions (N+20 nucleotide additions with TdT, analysed by next-generation sequencing); format: biochemical
Protocol: Enzymatic N+20 nucleotide addition reactions were conducted on polymer-coated silica paramagnetic particles. Enzymatic DNA synthesis was performed on a ThermoFisher KingFisher sample purification system. Enzymatic DNA synthesis consists of cycles of addition solution (containing TdT, reversibly terminated nucleotide and a near-neutral extension solution comprising one or more buffers (e.g., Tris or cacodylate), one or more salts (e.g., Na^+, K^+, Mg^2+, Mn^2+, Cu^2+, Zn^2+, Co^2+, etc. all with appropriate counterions, such as Cl^−) and inorganic pyrophosphatase (e.g., the Saccharomyces cerevisiae homolog)), wash 1 solution (HEPES+5 mM EDTA at pH 8.00), deblock solution (sodium nitrite at pH 5.5), and wash 2 solution (HEPES at pH 7.20). The following sequences […] (Oligo A) and […] (Oligo B) were synthesized in triplicate. DNA products were analysed by next-generation sequencing on an Illumina MiniSeq. Data showing the percent perfect sequences are shown in the following plots for synthesis of these sequences with reversibly terminated dG and reversibly terminated 8-aza-dG; other nucleotides are reversibly terminated dA, dC or dT.

Molecule	stability in NDS compared with 2′-deoxyguanosine [1]	other results
CS(=O)(=O)c1cn(C2CC(O)C(CO)O2)c2nc(N)[nH]c(=O)c12 (stereo not shown) [7-(MethanesulfonyI)-7-Deaza-2′-Deoxyguanosine]	slightly more stable	–
N#Cc1cn([C@H]2C[C@H](O)[C@@H](CO)O2)c2nc(N)[nH]c(=O)c12 [7-deaza-7-cyano-2′-deoxyguanosine, 7-Deaza-7-Cyano-2′-Deoxyguanosine]	slightly more stable	–
Nc1nc2c(c(C(F)(F)F)cn2[C@H]2C[C@H](O)[C@@H](CO)O2)c(=O)[nH]1 [7-Deaza-7-Trifluoromethyl-2′-Deoxyguanosine]	slightly more stable	–
3′-(O)-Acetoxime-8-Aza-2′-Deoxyguanosine 5′-Triphosphate [reversibly terminated 8-aza-dG]	–	efficiency of additions of any nucleotide to 8-aza-dG terminated sequences compared with dG terminated sequences (TdT; TdT addition, Oligo A and Oligo B): less efficient; percent perfect sequences compared with products made with dG (TdT; synthesis of Oligo A and Oligo B in triplicate, Illumina MiniSeq): lower level of percent perfect sequences
Nc1nc2c(nnn2[C@H]2C[C@H](O)[C@@H](CO)O2)c(=O)[nH]1 [8-Aza-2′-deoxyguanosine]	–	factor by which more stable in NDS than 2′-deoxyguanosine ([1]; nitrite deprotection solution pH 5.5, room temperature, run in parallel with 2′-deoxyguanosine): 4.2
Nc1nc2c(ccn2[C@H]2C[C@H](O)[C@@H](CO)O2)c(=O)[nH]1 [7-Deaza-2′-deoxyguanosine, reference compound]	much less stable	–

— patent publication US20240150389A1, “MODIFIED GUANINES” (NUCLERA NUCLEICS LTD, priority 2021, published 2024)
